Laboratory results published in PMC8921834, “Septins tune lipid kinase activity and PI(4,5)P2 turnover during G-protein–coupled PLC signalling in vivo” (Life Science Alliance, 2022).

Molecular target: T1, dPIP5K^L (Drosophila melanogaster, UniProt A0A6M3Q9L5)
T1 construct: gene PIP5K59B; full-length long isoform, 897 residues, about 100 kD; cDNA from fly retinae in pUAST-attB, transiently expressed in Drosophila S2R+ cells; lysate assayed
Assay: in vitro lipid kinase assay, LC-MS/MS of product:substrate ratio
Type: biochemical
Conditions: S2R+ lysate 10 μg; 600 pmol PI4P with phosphatidylserine micelles; ATP (40 μM in 2x buffer), pH 7.4, 30 °C, 30 min

T1 sequence (A0A6M3Q9L5 1-891): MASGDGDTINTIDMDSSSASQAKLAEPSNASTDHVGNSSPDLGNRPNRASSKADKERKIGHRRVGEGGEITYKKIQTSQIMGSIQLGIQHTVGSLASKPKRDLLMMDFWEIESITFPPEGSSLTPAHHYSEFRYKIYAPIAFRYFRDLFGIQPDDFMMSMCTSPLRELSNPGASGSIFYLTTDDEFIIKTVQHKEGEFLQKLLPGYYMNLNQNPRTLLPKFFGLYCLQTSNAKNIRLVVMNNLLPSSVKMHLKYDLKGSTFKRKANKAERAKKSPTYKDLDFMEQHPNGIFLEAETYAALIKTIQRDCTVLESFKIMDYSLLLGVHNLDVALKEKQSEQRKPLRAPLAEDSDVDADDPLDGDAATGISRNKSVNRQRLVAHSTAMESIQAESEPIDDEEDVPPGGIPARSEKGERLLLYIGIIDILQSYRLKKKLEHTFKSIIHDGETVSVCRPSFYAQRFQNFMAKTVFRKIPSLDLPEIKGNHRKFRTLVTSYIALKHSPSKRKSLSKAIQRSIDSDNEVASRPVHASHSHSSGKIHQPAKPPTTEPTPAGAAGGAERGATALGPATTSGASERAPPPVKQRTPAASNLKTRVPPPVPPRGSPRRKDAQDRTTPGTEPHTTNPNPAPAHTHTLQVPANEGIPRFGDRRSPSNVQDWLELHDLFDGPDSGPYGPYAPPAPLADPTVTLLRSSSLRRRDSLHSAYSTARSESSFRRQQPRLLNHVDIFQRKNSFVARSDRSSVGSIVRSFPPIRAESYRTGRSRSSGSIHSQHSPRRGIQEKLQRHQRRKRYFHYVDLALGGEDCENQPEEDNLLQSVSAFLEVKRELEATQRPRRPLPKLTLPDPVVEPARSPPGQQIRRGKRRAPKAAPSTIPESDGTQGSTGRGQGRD

CCCCC/C=C\C/C=C\C/C=C\C/C=C\CCCC(=O)O[C@H](COC(=O)CCCCCCCCCCCCCCCC)COP(=O)(O)O[C@H]1[C@H](O)[C@@H](O)[C@H](OP(=O)(O)O)[C@@H](O)[C@H]1O [37:4 PI4P]
response ratio: response ratio of dPIP5K^L transfected lysates was significantly higher
